Data from paper PMC12435844, “cGAS activation converges with intracellular acidification to promote STING aggregation and pyroptosis in tumor models” (The Journal of Clinical Investigation, 2025).

Assays:
cyclophilin D (CypD) [1] = target: T1, cyclophilin D (CypD) (Homo sapiens, UniProt P30405); assay: photoactive click probe in A375 cells, azide-biotin conjugation, streptavidin pull-down and Western blot; type: cell-based
T1 construct: gene PPIF

STING = STING (UniProt Q86WV6); assay: co-immunoprecipitation; conditions: reference: PERK wild type; sites T982
cyclophilin D (CypD) [2] = target: T1, cyclophilin D (CypD); assay: SPR; also FL-DSF (KD […]) and CETSA on immunoprecipitated CypD; type: binding

T1 sequence (P30405 30-207): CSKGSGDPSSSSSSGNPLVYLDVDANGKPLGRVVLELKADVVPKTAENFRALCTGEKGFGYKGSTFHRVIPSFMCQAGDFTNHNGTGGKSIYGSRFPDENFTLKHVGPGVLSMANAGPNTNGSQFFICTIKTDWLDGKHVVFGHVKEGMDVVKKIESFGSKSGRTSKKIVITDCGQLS

C#CCCC1(CC(=O)OCCCCCOC(=O)c2ccc3cc(O)ccc3c2)N=N1 [DHN-P]
photoactive click probe in A375 cells, azide-biotin conjugation, streptavidin pu (cyclophilin D (CypD) [1]): DHN-P could effectively pull down CypD but not other components in the mPTP complex

PERK (from UniProt Q9NZJ5) PERK T982A
binding against the reference (STING): lost

CCCCCCCCCCCCOC(=O)c1ccc2cc(O)ccc2c1 [DHN, dodecyl 6-hydroxy-2-naphthoate]
Kd (cyclophilin D (CypD) [2]): 1190 ± 68 nM
